Read-outs that look alike come from different tables or passages of the source.
What was measured:
influenza = conditions: 2009 H1N1 pandemic; cited from earlier work
[1] = cited from earlier work
human rhinovirus = conditions: airway epithelial cells; cited from earlier work
IL-4, IL-6, and IL-8 = conditions: cited from earlier work
H1 receptor = H1 receptor (Homo sapiens, UniProt P35367); conditions: acidic pH (inflamed tissue), relative to first generation molecules, cited from earlier work
[2] = in vivo; cited from earlier work
[3] = system: histamine induced wheal and flare; conditions: cited from earlier work
eosinophil migration = conditions: cited from earlier work
[4] = system: Churg-Strauss Syndrome (eosinophilic vasculitis); experiment: Example 1 case study: person with Churg-Strauss Syndrome; format: in vivo, human; conditions: 2010, patient history
Henoch Schonlein Purpura = experiment: Example 2 case study: person with Henoch Schonlein Purpura; format: in vivo, human; conditions: before the combination; ibuprofen and diphenhydramine
Excerpt: Case Study: person with Henoch Schonlein Purpura The patient is a person originally seen and evaluated in London, England, Feb. […] […] The ibuprofen and diphenhydramine were discontinued.

[5] = cited from earlier work; for time to steady state level: montelukast
[6] = cited from earlier work; remark: listed apart in the source
[7] = with warfarin, theophylline, digoxin, terfenadine, oral contraceptives, or prednisone; cited from earlier work

H1 receptor, sequence (P35367 whole entry): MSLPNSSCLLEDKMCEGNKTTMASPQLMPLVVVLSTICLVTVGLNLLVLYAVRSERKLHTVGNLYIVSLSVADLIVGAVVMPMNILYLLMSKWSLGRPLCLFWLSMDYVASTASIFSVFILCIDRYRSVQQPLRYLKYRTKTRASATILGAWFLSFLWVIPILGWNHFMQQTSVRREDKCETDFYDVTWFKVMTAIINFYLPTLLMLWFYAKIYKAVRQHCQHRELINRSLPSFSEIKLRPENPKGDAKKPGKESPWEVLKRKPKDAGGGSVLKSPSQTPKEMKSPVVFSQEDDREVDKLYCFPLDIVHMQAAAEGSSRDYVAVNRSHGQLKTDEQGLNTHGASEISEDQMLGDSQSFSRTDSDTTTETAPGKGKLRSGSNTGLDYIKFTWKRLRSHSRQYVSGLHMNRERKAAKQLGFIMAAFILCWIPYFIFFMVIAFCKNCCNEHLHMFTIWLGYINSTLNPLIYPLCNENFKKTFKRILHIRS

Compound: CCOC(=O)C1=C[C@@H](OC(CC)CC)[C@H](NC(C)=O)[C@@H](N)C1 [oseltamivir]
- influenza related lower respiratory tract complications (influenza): did not appear to reduce

Compound: O=C(O)COCCN1CCN([C@H](c2ccccc2)c2ccc(Cl)cc2)CC1 [levocetirizine]
- principal side effect at higher doses ([1]; higher doses): Sedation
- doses safely administered in humans ([1]; human dosing safety studies): up to 30 mg/day
- rhinovirus-induced ICAM-1 and cytokine expression and viral replication (human rhinovirus): inhibits
- inflammatory mediators, IL-4, IL-6, and IL-8 (IL-4, IL-6, and IL-8): decrease
- enhanced receptor affinity over first generation mepyramine (H1 receptor): up to 5 ×
- enhanced receptor affinity over first generation mepyramine (H1 receptor; listed as Levocetirizine): 5 ×
- time to steady state level [2]: 40 h
- potency among the five modern generation antihistamines ([3]; histamine induced wheal and flare data): most potent
- effectiveness versus fexofenadine ([3]; levocetirizine 5 mg per day vs fexofenadine 180 mg per day): more effective than fexofenadine
- eosinophil migration / quantity (eosinophil migration): decrease

Compound: omalizumab
- trial for severe asthma [4]: Unsuccessful

Compound: CC(C)Cc1ccc(C(C)C(=O)O)cc1 (centres unmarked) [ibuprofen]
- response of recurrent Henoch Schonlein Purpura (Henoch Schonlein Purpura): poorly responsive

Compound: CC(C)(O)c1ccccc1CC[C@@H](SCC1(CC(=O)O)CC1)c1cccc(/C=C/c2ccc3ccc(Cl)cc3n2)c1 [montelukast]
- IV plasma concentration area under the curve profile versus oral tablet ([5]; IV 7 mg vs approved 10 mg oral tablet): comparable
- linearity of pharmacokinetics ([5]; in vivo): linear pharmacokinetics to 50 mg
- time to peak plasma concentration ([5]; in vivo): 3 to 4 h
- time to steady state level [5]: within two days
- time to steady state level ([5]; listed as Montelukast): less than two days
- effect of a standard meal on oral bioavailability and Cmax ([5]; standard meal): not affected
- doses administered without clinically important adverse experiences ([6]; adult patients for 22 weeks): up to 200 mg/day
- doses administered without clinically important adverse experiences ([6]; short-term studies, patients for approximately one week): up to 900 mg/day
- drug interactions [7]: no drug interactions

Compound: CN(C)CCOC(c1ccccc1)c1ccccc1 [diphenhydramine]
- response of recurrent Henoch Schonlein Purpura (Henoch Schonlein Purpura): poorly responsive

Reference: patent US9669025B2 (INFLAMMATORY RESPONSE RESEARCH, INC., priority 2013, dated 2017)
